SMILES strings stand for the structures. Calls of active or inactive are those of the source. How the calls were made is not given here.

This experiment is described as follows: concentration series on yeast TOR reporter LAP4 – cell-based, MLPCN hits, flow cytometry, dose response (AID 2745).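 Further: yeast exposed to compound for three hours at 30 degrees.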 To be noted: S. cerevisiae LAP4-GFP reporter, flow cytometry fluorescence; at 33 µM (top of the series). (In general: In flow cytometry, cells or beads pass a laser one at a time.)
As for `Cc1ccc(C(CC(=O)O)NC(=O)c2ccc(S(=O)(=O)N3CC(C)OC(C)C3)cc2)cc1` (configuration not stated), the LAP4-GFP fluorescence (kMESF) was 3.28 kMESF (inactive). Then `O=C1C(Cl)=C(Nc2ccccc2O)C(=O)N1c1ccccc1`, with 4.81 kMESF (inactive). As to `C/C(=N\Nc1ncnc2sc(C)c(C)c12)c1ccccn1`, the LAP4-GFP fluorescence (kMESF) is -7.63 kMESF (inactive). As to `CC(=O)N(C1=C(Cl)C(=O)c2ccccc2C1=O)C1CCCCC1`, the LAP4-GFP fluorescence (kMESF) is -2.43 kMESF (inactive).

For the compound `COc1ccccc1C(=O)NNC(=S)NC(=O)c1ccco1`, the LAP4-GFP fluorescence (kMESF) was 13.2 kMESF (inactive). Consider `COc1cc(/C=C/[N+](=O)[O-])ccc1O`, for which the LAP4-GFP fluorescence (kMESF) is 7.18 kMESF (inactive).

Turning to `COC(CNC(=O)c1ccc2c3c(onc13)-c1ccccc1C2=O)OC`, the LAP4-GFP fluorescence (kMESF) was 2.86 kMESF (inactive). Then `O=C1N(c2ccccc2C(F)(F)F)O[C@]1(c1ccccc1)C1CCCC1`, with 3.98 kMESF (inactive); and `Cc1ccc(NC(=O)c2nc(S(=O)(=O)Cc3ccccc3)ncc2Cl)cc1`, with 9.01 kMESF (inactive). As for `O=C1c2cccc3c([N+](=O)[O-])ccc(c23)C(=O)N1O`, the LAP4-GFP fluorescence (kMESF) is 3.64 kMESF (inactive).

Turning to `CCCN1CCc2c(sc(NC(=S)NC(=O)c3ccccc3)c2C#N)C1`, the LAP4-GFP fluorescence (kMESF) was 7.91 kMESF (inactive). For `Cc1[nH]n(-c2ncc(-c3ccccc3)s2)c(=O)c1C(c1ccc(Cl)cc1)C(C#N)C#N` (configuration not stated), the LAP4-GFP fluorescence (kMESF) was 8.02 kMESF (inactive). For the compound `O=c1c2cc(Br)ccc2nc(-c2ccc([N+](=O)[O-])cc2)n1O`, the LAP4-GFP fluorescence (kMESF) is 6.81 kMESF (inactive). Then `O=C(Nc1ccc(NC(=O)c2cc3ccccc3o2)cc1)c1ccc2c(c1)OCCO2`, with 3.21 kMESF (inactive); and `Cc1[nH][nH]c(=O)c1C(c1ccc(-c2ccc(Cl)cc2)o1)c1c(C)[nH][nH]c1=O`, with 6.67 kMESF (inactive). Then `O=C(NC(=S)Nc1ccc2oc(=O)ccc2c1)c1cccc(Cl)c1`, with 3.47 kMESF (inactive); and `Oc1ccc(N=Nc2ccccc2)o1`, with 18.8 kMESF (inactive); and `CS(=O)(=O)c1nc(-c2ccccc2)cc(C(F)(F)F)n1`, with 16.6 kMESF (inactive). Then `Cc1ccc(-c2nn(C(C)(C)C)c3ncnc(N)c23)cc1`, with 8.82 kMESF (inactive).

For `COc1ccc(-c2cc(C(F)(F)F)nc(S(C)(=O)=O)n2)cc1`, the LAP4-GFP fluorescence (kMESF) is 10.6 kMESF (inactive). In the case of `CCOC(=O)CS(=O)(=O)c1nc(-c2ccc(F)cc2)cc(C(F)(F)F)n1`, the LAP4-GFP fluorescence (kMESF) was 11.2 kMESF (inactive). Then `Cc1ccccc1OCC(=O)NNC(=S)NC(=O)c1ccco1`, with 6.11 kMESF (inactive); and `CC(=O)Oc1cccc(N2C(=O)c3cccc4c([N+](=O)[O-])ccc(c34)C2=O)c1`, with 5.16 kMESF (inactive). For `O=C(NNC(=S)NC(=O)C12CC3CC(CC(C3)C1)C2)c1ccncc1`, the LAP4-GFP fluorescence (kMESF) is 15.7 kMESF (inactive). On to `COc1cc(/C=C2/C(=O)c3cccc([N+](=O)[O-])c3C2=O)c(Br)cc1O`, for which the LAP4-GFP fluorescence (kMESF) was 3.64 kMESF (inactive). Then `Oc1ccc(COCc2ccccc2)c2cccnc12`, with 20.4 kMESF (inactive). Then `COc1ccccc1N=Cc1nc(-c2ccccc2)oc1OC(C)=O`, with 8.6 kMESF (inactive). In the case of `Cc1ccc(C(=O)NNC(=S)NC(=O)c2ccco2)cc1`, the LAP4-GFP fluorescence (kMESF) is 7.42 kMESF (inactive).

On to `Cn1ncc2c(O/N=C(\N)c3ccc(C(C)(C)C)cc3)ncnc21`, for which the LAP4-GFP fluorescence (kMESF) was 5.61 kMESF (inactive). Then `CC(C)CC(=O)NC(=S)Nc1nc(-c2ccccc2)cs1`, with 3.44 kMESF (inactive).

In the case of `O=[N+]([O-])c1c(Nc2ccccn2)cc(Cl)c2nonc12`, the LAP4-GFP fluorescence (kMESF) is 36.2 kMESF (inactive). Turning to `CCCCCn1c(=O)c(C(=O)Nc2nc3ccccc3[nH]2)c(O)c2ccccc21`, the LAP4-GFP fluorescence (kMESF) was 2.43 kMESF (inactive). As to `CCN(CC)C(=S)SSC(=S)N(CC)CC`, the LAP4-GFP fluorescence (kMESF) is 20.4 kMESF (inactive). Consider `Cc1ccc2[nH]cc(/C=C/c3cc[n+](C)cc3)c2c1`, for which the LAP4-GFP fluorescence (kMESF) was 5.34 kMESF (inactive). For `COCCN1C(=O)/C(=C/c2ccc(N3CCCC3)cc2C)SC1=S`, the LAP4-GFP fluorescence (kMESF) is 7.02 kMESF (inactive). Then `Cc1ccc2nc(/C(C#N)=C/c3ccc(O)c(O)c3)[nH]c2c1`, with 4.39 kMESF (inactive); and `O=C1C(Cl)=C(N2CCN(Cc3ccccc3)CC2)C(=O)N1c1ccccc1`, with 4.11 kMESF (inactive).

As for `COc1cc(C=C2C(=O)c3ccccc3C2=O)cc(OC)c1OC`, the LAP4-GFP fluorescence (kMESF) was 4.04 kMESF (inactive). As to `COc1ccc(C=C2C(=O)c3ccccc3C2=O)cc1O`, the LAP4-GFP fluorescence (kMESF) was 3.24 kMESF (inactive).

Regarding `COc1cccc(/C=C2\C(=O)N(c3cccc(C)c3)C(=O)c3ccccc32)c1`, the LAP4-GFP fluorescence (kMESF) was 9.02 kMESF (inactive). Turning to `COc1ccc(/C=C2/C(=O)ON=C2c2ccccc2)cc1OC`, the LAP4-GFP fluorescence (kMESF) is 14 kMESF (inactive).

With `O=C1C(Cl)=C(Nc2ccccc2O)C(=O)N1CCc1ccccc1`, the LAP4-GFP fluorescence (kMESF) is 5.01 kMESF (inactive). `Cc1ccc2c(c1)c(/C=C/c1cc[n+](C)cc1)c(C)n2C`: the LAP4-GFP fluorescence (kMESF) was 4.11 kMESF (inactive). For the compound `O=C(/C=C/c1ccccc1)c1cc(Br)ccc(=O)c1O`, the LAP4-GFP fluorescence (kMESF) was -10.1 kMESF (inactive). Consider `Oc1c(CN2CCN(c3ccccc3)CC2)cc(Br)c2cccnc12`, for which the LAP4-GFP fluorescence (kMESF) was 20.9 kMESF (inactive). As for `CCc1cccc2sc(N3CCN(C(=O)c4ccc([N+](=O)[O-])o4)CC3)nc12`, the LAP4-GFP fluorescence (kMESF) is -0.3 kMESF (inactive).

As to `O=C(c1ccc(Cl)c([N+](=O)[O-])c1)N1CCN(c2ccccc2)CC1`, the LAP4-GFP fluorescence (kMESF) was 8.26 kMESF (inactive).

Turning to `CCn1c(=O)c(C(C)=O)c(O)c2ccccc21`, the LAP4-GFP fluorescence (kMESF) is 6.66 kMESF (inactive). Then `O=S(=O)(/N=C(\Sc1ccc(Cl)cc1)c1ccccc1)c1ccccc1`, with 12.4 kMESF (inactive); and `c1ccc(-c2csc(Nc3cccnc3)n2)nc1`, with 3.67 kMESF (inactive).

Turning to `COc1cc(/C=C2\C(=O)ON=C2c2ccccc2)cc(Br)c1O`, the LAP4-GFP fluorescence (kMESF) was 14.7 kMESF (inactive).

As to `CCN1/C(=C/c2ccc3cc(C)ccc3[n+]2CC)Sc2ccc3sccc3c21`, the LAP4-GFP fluorescence (kMESF) was 10.7 kMESF (inactive).

For `O=C(Oc1oc(-c2ccco2)nc1C=Nc1ccc(Cl)cc1)c1ccco1`, the LAP4-GFP fluorescence (kMESF) was 8.92 kMESF (inactive). Consider `CCOc1ccc(N2C(=O)C(Cl)=C(Nc3ccccc3O)C2=O)cc1`, for which the LAP4-GFP fluorescence (kMESF) is 5.81 kMESF (inactive).

Regarding `O=C(/C=C/c1ccccc1)NC(=S)NNC(=O)Cc1cccs1`, the LAP4-GFP fluorescence (kMESF) was 3.64 kMESF (inactive).

As for `CCOc1ccc(C(C)=O)cc1N1C(=O)C2C3C=CC(O3)C2C1=O` (configuration not stated), the LAP4-GFP fluorescence (kMESF) is 14 kMESF (inactive). Then `O=C1C2C3C=CC(CO)(O3)C2C(=O)N1c1ccccc1-c1ccccc1` (configuration not stated), with 5.75 kMESF (inactive).

Values taken from PubChem BioAssay AID2745 (NMMLSC, 2010).
